Laboratory results taken from the supplement of paper PMC12533247.

Tests used:
[1] = tested on: HSV-1 K26-GFP infected primary human skin cells; assay: % change of HSV-1 GFP signal vs untreated infected cells; higher = less antiviral inhibition; details: cell type: primary dermal fibroblasts, time (h post infection): 48
Procedure: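 2D primary donor-derived dermal fibroblasts infected with GFP-HSV-1 K26 at MOI 1, treated 1 h later with compound dilutions and read at 48 hpi on IncuCyte. GFP integrated intensity is normalised to mock-infected and untreated infected wells (% change; -100 = full inhibition).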

[2] = tested on: HSV-1 K26-GFP infected primary human skin cells; assay: as above
Procedure: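 2D primary donor-derived keratinocytes (read at 20 hpi) and donor-matched dermal fibroblasts (read at 48 hpi) infected with GFP-HSV-1 K26 at MOI 1 and treated 1 h later with compound dilutions. IncuCyte GFP integrated intensity is normalised by subtracting mock-infected wells and dividing by untreated infected wells, shown as % change (-100 = full inhibition).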

Nc1nc2c(ncn2COCCO)c(=O)[nH]1 [Acyclovir]
% change of HSV-1 GFP signal [%], [1]
Details	0.01 µM	0.03 µM	0.091 µM	0.274 µM	0.823 µM	2.469 µM	7.407 µM	22.222 µM	66.667 µM	200 µM
donor: 3	11.2	-4.39	-24.2	-53.8	-81.8	-96	-98.87	-99.69	-99.875	-99.88
donor: 4	-5.12	-10.6	-29.8	-54.4	-78.2	-94	-98.8	-99.862	-99.93	-99.998

% change of HSV-1 GFP signal [%], [2]
Details	0.01 µM	0.03 µM	0.091 µM	0.274 µM	0.823 µM	2.469 µM	7.407 µM	22.222 µM	66.667 µM	200 µM
cell type: primary dermal fibroblasts, donor: 5, time (h post infection): 48	8.25	5.48	-8.89	-35.4	-64.4	-91.6	-98.36	-99.642	-99.73	-99.952
cell type: primary keratinocytes, donor: 3, time (h post infection): 20	4.06	2.08	5.2	11.3	10.1	10.8	5.3	-13.4	-42.3	-69.1
cell type: primary keratinocytes, donor: 4, time (h post infection): 20	3.4	-0.143	2.05	3.28	-0.371	-2.35	-4.48	-27.5	-53.6	-80.5
cell type: primary keratinocytes, donor: 5, time (h post infection): 20	3.43	1.77	4.64	3.64	4.14	5.76	-4.49	-17.7	-45.6	-75.1
